Measured values as given in patent publication US12077503B2, “Substituted cyclic amides and their use as herbicides” (FMC CORPORATION, priority 2015, dated 2024).

Key:
Type in all cases: in vivo
[1] = system: Kochia (Kochia scoparia); test: Test A preemergence; conditions: Bassia scoparia, pre-emergence, 240 h, Preemergence
Summary of the method: (§1)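 Visual injury scores from 0, no effect, to 100, complete control, were assigned versus untreated controls roughly 10 d after treatment in the greenhouse. Test chemicals, formulated with surfactant in a non-phytotoxic solvent, were applied to planted seeds as a preemergence soil spray or postemergence to one- to two-leaf plants 2 to 10 cm tall, in loam–sand soil.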

[2] = system: barnyardgrass (Echinochloa crus-galli); test: Test A preemergence; conditions: Echinochloa crus-galli, pre-emergence, 240 h, Preemergence
Summary of the method: as §1

[3] = system: giant foxtail (Setaria faberii); test: Test A preemergence; conditions: Setaria faberi, pre-emergence, 240 h, Preemergence
Summary of the method: as §1

[4] = system: pigweed (Amaranthus retroflexus); test: Test A preemergence; conditions: Amaranthus retroflexus, pre-emergence, 240 h, Preemergence
[5] = system: ragweed (common ragweed, Ambrosia elatior); test: Test A preemergence; conditions: Ambrosia artemisiifolia, pre-emergence, 240 h, Preemergence
Summary of the method: as §1

[6] = system: ryegrass, Italian (Italian ryegrass, Lolium multiflorum); test: Test A preemergence; conditions: Lolium multiflorum, pre-emergence, 240 h, Preemergence
Summary of the method: as §1

[7] = system: Galium (catchweed bedstraw, Galium aparine); test: Test A postemergence; conditions: Galium, post-emergence, 240 h, Postemergence, read-out: Galium plant response rating (0 to 100 scale)
Summary of the method: as §1

[8] = system: Kochia (Kochia scoparia); test: Test A postemergence; conditions: Bassia scoparia, post-emergence, 240 h, Postemergence, read-out: Kochia plant response rating (0 to 100 scale)
Summary of the method: as §1

[9] = system: barnyardgrass (Echinochloa crus-galli); test: Test A postemergence; conditions: Echinochloa crus-galli, post-emergence, 240 h, Postemergence
Summary of the method: as §1

[10] = system: blackgrass (Alopecurus myosuroides); test: Test A postemergence; conditions: Alopecurus myosuroides, post-emergence, 240 h, Postemergence, read-out: Blackgrass plant response rating (0 to 100 scale)
Summary of the method: as §1

[11] = system: corn (Zea mays); test: Test A postemergence; conditions: Zea mays, post-emergence, 240 h, Postemergence, read-out: Corn plant response rating (0 to 100 scale)
Summary of the method: as §1

[12] = system: giant foxtail (Setaria faberii); test: Test A postemergence; conditions: Setaria faberi, post-emergence, 240 h, Postemergence, read-out: Foxtail, Giant plant response rating (0 to 100 scale)
Summary of the method: as §1

[13] = system: pigweed (Amaranthus retroflexus); test: Test A postemergence; conditions: Amaranthus retroflexus, post-emergence, 240 h, Postemergence, read-out: Pigweed plant response rating (0 to 100 scale)
Summary of the method: as §1

[14] = system: ragweed (common ragweed, Ambrosia elatior); test: Test A postemergence; conditions: Ambrosia artemisiifolia, post-emergence, 240 h, Postemergence, read-out: Ragweed plant response rating (0 to 100 scale)
Summary of the method: as §1

[15] = system: ryegrass, Italian (Italian ryegrass, Lolium multiflorum); test: Test A postemergence; conditions: Lolium multiflorum, post-emergence, 240 h, Postemergence, read-out: Ryegrass, Italian plant response rating (0 to 100 scale)
Summary of the method: as §1

[16] = system: wheat (Triticum aestivum); test: Test A postemergence; conditions: Triticum aestivum, post-emergence, 240 h, Postemergence, read-out: Wheat plant response rating (0 to 100 scale)
Summary of the method: as §1

[17] = system: barnyardgrass (Echinochloa crus-galli); test: Test B flooded paddy test; conditions: Echinochloa crus-galli, 360 h, Flood, 250 g ai/ha; visually evaluated after 13 to 15 d; read-out: Plant response rating, Barnyardgrass (0 to 100 scale where 0 is no effect and 100 is complete control)
Summary of the method: (§2)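 Compound goes directly into floodwater once pots are flooded 3 cm above soil, targeting plants at two leaves; the water depth is then held for the test duration. Plants sit 13–15 d in a greenhouse and are rated visually, 100 denoting complete control.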

[18] = system: ducksalad (Heteranthera limosa); test: Test B flooded paddy test; conditions: Heteranthera limosa, 360 h, Flood, 250 g ai/ha; visually evaluated after 13 to 15 d; read-out: Plant response rating, Ducksalad (0 to 100 scale where 0 is no effect and 100 is complete control)
Summary of the method: as §2

[19] = system: rice (Oryra sativa); test: Test B flooded paddy test; conditions: Oryza sativa, 360 h, Flood, 250 g ai/ha; visually evaluated after 13 to 15 d; read-out: Plant response rating, Rice (0 to 100 scale where 0 is no effect and 100 is complete control)
Summary of the method: as §2

[20] = system: sedge, umbrella (small-flower umbrella sedge, Cyperus difformis); test: Test B flooded paddy test; conditions: Cyperus difformis, 360 h, Flood, 250 g ai/ha; visually evaluated after 13 to 15 d; read-out: Plant response rating, Sedge, Umbrella (0 to 100 scale where 0 is no effect and 100 is complete control)
Summary of the method: as §2

[21] = 125 g ai/ha, visual rating about 10 d after treatment
[22] = 31 g ai/ha, 0 is no effect, 100 is complete control

CN1C[C@H](c2ccc(C(F)(F)F)cc2)[C@@H](C(=O)Nc2ccc(F)nc2F)C1=O [Compound 1347]
pest or weed control at 31 g/ha ([1]; 31 g ai/ha, 0 to 100 scale where 0 is no effect and 100 is complete control, read-out: Kochia plant response rating): 90%
pest or weed control at 125 g/ha ([1]; 125 g ai/ha, 0 to 100 scale (0 no effect, 100 complete control), read-out: Plant response rating, Kochia): 90%
pest or weed control at 31 g/ha ([2]; 31 g ai/ha, 0 to 100 scale where 0 is no effect and 100 is complete control, read-out: Barnyardgrass plant response rating): 80%
pest or weed control at 125 g/ha ([2]; 125 g ai/ha, 0 to 100 scale (0 no effect, 100 complete control), read-out: Plant response rating, Barnyardgrass): 100%
pest or weed control at 31 g/ha ([3]; 31 g ai/ha, 0 to 100 scale where 0 is no effect and 100 is complete control, read-out: Foxtail, Giant plant response rating): 100%
pest or weed control at 125 g/ha ([3]; 125 g ai/ha, 0 to 100 scale (0 no effect, 100 complete control), read-out: Plant response rating, Foxtail, Giant): 100%
pest or weed control at 31 g/ha ([4]; 31 g ai/ha, 0 to 100 scale where 0 is no effect and 100 is complete control, read-out: Pigweed plant response rating): 90%
pest or weed control at 125 g/ha ([4]; 125 g ai/ha, 0 to 100 scale (0 no effect, 100 complete control), read-out: Plant response rating, Pigweed): 100%
pest or weed control at 31 g/ha ([5]; 31 g ai/ha, 0 to 100 scale where 0 is no effect and 100 is complete control, read-out: Ragweed plant response rating): 30%
pest or weed control at 125 g/ha ([5]; 125 g ai/ha, 0 to 100 scale (0 no effect, 100 complete control), read-out: Plant response rating, Ragweed): 90%
pest or weed control at 31 g/ha ([6]; 31 g ai/ha, 0 to 100 scale where 0 is no effect and 100 is complete control, read-out: Ryegrass, Italian plant response rating): 0%
pest or weed control at 125 g/ha ([6]; 125 g ai/ha, 0 to 100 scale (0 no effect, 100 complete control), read-out: Plant response rating, Ryegrass, Italian): 30%
pest or weed control at 125 g/ha [7, 21]: 70%
pest or weed control at 31 g/ha [7, 22]: 70%
pest or weed control at 125 g/ha [8, 21]: 80%
pest or weed control at 31 g/ha [8, 22]: 60%
pest or weed control at 125 g/ha ([9]; 125 g ai/ha, visual rating about 10 d after treatment, read-out: Barnyardgrass plant response rating (0 to 100 scale, 0 no effect, 100 complete control)): 90%
pest or weed control at 31 g/ha ([9]; 31 g ai/ha, 0 is no effect, 100 is complete control, read-out: Barnyardgrass plant response rating (0 to 100 scale)): 70%
pest or weed control at 125 g/ha [10, 21]: 60%
pest or weed control at 31 g/ha [10, 22]: 30%
plant injury at 125 g/ha [11, 21]: 30%
plant injury at 31 g/ha [11, 22]: 30%
pest or weed control at 125 g/ha [12, 21]: 90%
pest or weed control at 31 g/ha [12, 22]: 70%
pest or weed control at 125 g/ha [13, 21]: 90%
pest or weed control at 31 g/ha [13, 22]: 50%
pest or weed control at 125 g/ha [14, 21]: 70%
pest or weed control at 31 g/ha [14, 22]: 40%
pest or weed control at 125 g/ha [15, 21]: 40%
pest or weed control at 31 g/ha [15, 22]: 0%
plant injury at 125 g/ha [16, 21]: 30%
plant injury at 31 g/ha [16, 22]: 20%
pest or weed control at 250 g/ha [17]: 90%
pest or weed control at 250 g/ha [18]: 98%
pest or weed control at 250 g/ha [19]: 0%
pest or weed control at 250 g/ha [20]: 0%
